Where two headings read alike, the source gives them in different places.
What was measured:
[1] = test system: Fusarium culmorum; assay: Synergistic mixtures, microtiter test, Fusarium culmorum (Use Example 27); format: cell-based; details: single compound, 16 ppm
[2] = test system: Pyrenophora teres; assay: Synergistic mixtures, microtiter test, net blotch pathogen Pyrenophora teres (Use Example 29); format: cell-based; details: single compound
[3] = test system: Septoria glycines; assay: Microtiter test, Septoria glycines (Use Example 7); format: cell-based; details: 125 ppm; control =100%, day 7
[4] = test system: Thielaviopsis basicola; assay: Synergistic mixtures, microtiter test, Thielaviopsis basicola (Use Example 31); format: cell-based; details: single compound
[5] = test system: Alternaria solani; assay: Synergistic mixtures, microtiter test, early blight pathogen Alternaria solani (Use Example 24); format: cell-based; details: single compound, 0.063 ppm
[6] = test system: Gaeumannomyces graminis; assay: Synergistic mixtures, microtiter test, Gaeumannomyces graminis (Use Example 30); format: cell-based; details: single compound
[7] = test system: Colletotrichum truncatum; assay: Synergistic mixtures, microtiter test, Colletotrichum truncatum (Use Example 28); format: cell-based; details: single compound, 16 ppm
[8] = test system: Verticillium dahliae; details: single compound, 4 ppm
[9] = test system: Septoria tritici; assay: Synergistic mixtures, microtiter test, leaf blotch pathogen Septoria tritici (Use Example 26); format: cell-based; details: single compound, 4 ppm
[10] = test system: Pyricularia oryzae; format: cell-based; details: single compound
[11] = test system: Fusarium oxysporum; details: single compound, 16 ppm
[12] = test system: Puccinia recondita; assay: Synergistic mixtures, greenhouse, preventative control of brown rust on wheat caused by Puccinia recondita (Use Example 34); format: in vivo; details: single compound, untreated control 90% disease
Description: These percentages were converted into efficacies. An efficacy of 0 means that the growth level of the pathogens corresponds to that of the untreated control; an efficacy of 100 means that the pathogens were not growing.
The expected efficacies of active compound mixtures were determined using Colby's formula [R. S. Colby, Calculating synergistic and antagonistic responses of herbicide combinations, Weeds 15, 20-22 (1967)] and compared with the observed efficacies. E=x+y−x·y/100 Colby's formula • E expected efficacy, expressed in % of the untreated control, when using the mixture of the compounds A and B at the concentration a and b • x efficacy, expressed in % of the untreated control, when using compound A at a concentration of a • y efficacy, expressed in % of the untreated control, when using compound B at a concentration of b A) Microtiter Tests
The spray solutions were prepared in several steps:
The stock solution were prepared as follows: a mixture of acetone and/or dimethylsulfoxide and the wetting agent/emulsifier Wettol, which is based on ethoxylated alkylphenoles, in a relation (volume) solvent-emulsifier of 99 to 1 was added to 25 mg of the compound to give a total of 10 ml. Water was then added to total volume of 100 ml.
This stock solution was diluted with the described solvent-emulsifier-water mixture to the given concentration. The compounds pyraclostrobin, boscalid and epoxiconazole were used as commercial finished formulations and diluted with water to the stated concentration of the active compound.
The first two developed leaves of pot-grown wheat seedling were sprayed to run-off with an aqueous suspension, containing the concentration of active ingredient or their mixture as described below. The next day the plants were inoculated with spores of Puccinia recondita. To ensure the success the artificial inoculation, the plants were transferred to a humid chamber without light and a relative humidity of 95 to 99% and at temperatures between 20 and 24° C. for 24 h. Then, the plants were cultivated for 6 days in a greenhouse chamber at 20 to 24° C. and a relative humidity between 65 and 70%. The extent of fungal attack on the leaves was visually assessed as % diseased leaf area.

SMILES | Observed efficacy (%) [1] [%] | Observed efficacy (%) ([2]; 0.25 ppm) | Observed efficacy (%) ([2]; 1 ppm) | relative growth of the pathogen [3] | Observed efficacy (%) ([4]; 4 ppm) | Observed efficacy (%) ([4]; 16 ppm) | Observed efficacy (%) [5] [%] | Observed efficacy (%) ([6]; 0.063 ppm) | Observed efficacy (%) [7] [%] | Observed efficacy (%) [8] [%] | Observed efficacy (%) [9] [%] | Observed efficacy (%) ([4]; 1 ppm) | Observed efficacy (%) ([10]; 0.063 ppm) | Observed efficacy (%) ([10]; 0.25 ppm) | Observed efficacy (%) [11] [%] | Observed efficacy (%) ([6]; 0.016 ppm) | Observed efficacy (%) ([12]; 4 ppm) | Observed efficacy (%) ([12]; 16 ppm)
COc1cnccc1CNS(=O)(=O)c1ccc(Oc2ccccn2)cc1 [Example 8] | 0 | 0 | 9 | at most 25% | 11 | 6 | 3 | 0 |  |  |  |  |  |  |  |  |  | 
Cc1nccc(CNS(=O)(=O)c2ccc(Oc3ncc(C(F)(F)F)cc3Cl)cc2)c1C [Example 27] | 0 |  | 31 |  | 21 |  |  |  | 45 | 56 | 47 | 1 | 65 | 65 | 13 | 58 | 0 | 22

Source: patent US8299262B2, “Pyridylmethyl-sulfonamide compounds” (BASF SE, priority 2007, dated 2012)
